According to patent publication US20120076781A1, “METHODS OF TREATING CANCERS WITH HER3 ANTISENSE OLIGONUCLEOTIDES” (ENZON PHARMACEUTICALS, INC., priority 2009, published 2012):
In the oligonucleotide strings, read from the 5' end, every base follows the letter of its sugar. An asterisk marks phosphorothioate; unmarked linkages are phosphodiester. Other units and linkages are bracketed, terminal groups are in braces. A string of capitals states the bases alone. l = locked nucleic acid (LNA); [5mC] = 5-methylcytosine; d = 2'-deoxy (DNA)

Key:
Type in all cases: cell-based
Settings in all cases: 25 nM
[1] = test system: human EGFR mRNA; test: Down-regulation of EGFR mRNA in transfected 15PC3 cells, real-time PCR
Method: (§1) 15PC3: The human prostate cancer cell line 15PC3 was cultured in DMEM (Sigma)+10% fetal bovine serum (FBS)+2 mM Glutamax I+gentamicin (25 μg/ml).
(§2) The cells were treated with oligonucleotides using the cationic liposome formulation LipofectAMINE 2000 (Gibco) as transfection vehicle. Cells were seeded in 6-well cell culture plates (NUNC) and treated when 80-90% confluent. Oligomer concentrations ranged from 1 nM to 25 nM final concentration. Formulation of oligomer-lipid complexes was carried out essentially as described by the manufacturer using serum-free OptiMEM (Gibco) and a final lipid concentration of 5 μg/mL LipofectAMINE 2000. Cells were incubated at 37° C. for 4 hours and treatment was stopped by removal of oligomer-containing culture medium. Cells were washed and serum-containing medium was added. After oligomer treatment, cells were allowed to recover for 20 hours before they were harvested for RNA analysis.
(§3) Total RNA was extracted from cells transfected as described above and using the Qiagen RNeasy kit (Qiagen cat. no. 74104) according to the manufacturer's instructions. First strand synthesis was performed using Reverse Transcriptase reagents from Ambion according to the manufacturer's instructions.
(§4) For each sample 0.5 μg total RNA was adjusted to (10.8 μl) with RNase free H2O and mixed with 2 μl random decamers (50 μM) and 4 μl dNTP mix (2.5 mM each dNTP) and heated to 70° C. for 3 min after which the samples were rapidly cooled on ice. After cooling the samples on ice, 2 μl 10× Buffer RT, 1 μl MMLV Reverse Transcriptase (100 U/μl) and 0.25 μl RNase inhibitor (10 U/μl) was added to each sample, followed by incubation at 42° C. for 60 min, heat inactivation of the enzyme at 95° C. for 10 min, and then cooling the sample to 4° C.
(§5) The sample content of human HER3, EGFR and HER2 mRNA was quantified using the human HER3, EGFR and HER2 ABI Prism Pre-Developed TaqMan Assay Reagents (Applied Biosystems cat. no. Hs00951444_ml (HER3), Hs00193306_ml (EGFR) and Hs00170433_ml (HER2) according to the manufacturer's instructions.
(§6) Glyceraldehyde-3-phosphate dehydrogenase (GAPDH) mRNA quantity was used as an endogenous control for normalizing any variance in sample preparation. The sample content of human GAPDH mRNA was quantified using the human GAPDH ABI Prism Pre-Developed TaqMan Assay Reagent (Applied Biosystems cat. no. 4310884E) according to the manufacturer's instructions.
(§7) The cDNA from the first strand synthesis performed as described in Example 5 was diluted 2-20 times, and analyzed by real time quantitative PCR using Taqman 7500 FAST or 7900 FAST from Applied Biosystems. The primers and probe were mixed with 2× Taqman Fast Universal PCR master mix (2×) (Applied Biosystems Cat. #4364103) and added to 4 μl cDNA to a final volume of 10 μl. Each sample was analysed in duplicate. Assaying 2-fold dilutions of a cDNA that had been prepared on material purified from a cell line expressing the RNA of interest generated standard curves for the assays. Sterile H2O was used instead of cDNA for the no-template control. PCR program: 95° C. for 30 seconds, followed by 40 cycles of 95° C., 3 seconds, 60° C., 20-30 seconds. Relative quantities of target mRNA sequence were determined from the calculated Threshold cycle using the Applied Biosystems Fast System SDS Software Version 1.3.1.21. or SDS Software Version 2.3.
(§8) Oligonucleotides presented in Table 4 were evaluated for their potential to down-regulate HER3, EGFR and HER2 mRNA at concentrations of 1, 5 and 25 nM in 15PC3 cells (or HUH-7 as indicated by *) (see FIGS. 2, 3, 4 and 5). SEQ ID NOs: 235 and 236 were used as scrambled controls.
(§9) The data in Table 4 are presented as percentage down-regulation of mRNA relative to mock transfected cells at 25 nM. Lower-case letters represent DNA monomers, bold, upper-case letters represent β-D-oxy-LNA monomers. All cytosines in LNA monomers are 5-methylcytosines. Subscript “s” represents a phosphorothioate linkage.

[2] = test system: human HER2 mRNA; test: Down-regulation of HER2 mRNA in transfected 15PC3 cells, real-time PCR
Method: as §1, §2, §3, §4, §5, §6, §7, §8, §9

[3] = test system: human HER3 mRNA; test: Down-regulation of HER3 mRNA in transfected 15PC3 cells, real-time PCR
Method: as §1, §2, §3, §4, §5, §6, §7, §8, §9

Substance: ASTSASgScStScScSaSgSaScSaSTSCSA (antisense lA*lT*lA*dG*dC*dT*dC*dC*dA*dG*dA*dC*dA*lT*l[5mC]*lA) [SEQ ID NO: 173, β-D-oxy-LNA/DNA phosphorothioate gapmer antisense oligonucleotide targeting HER3]
- EGFR: percentage down-regulation of mRNA relative to mock transfected cells [1]: 96.4%
- HER2: percentage down-regulation of mRNA relative to mock transfected cells [2]: 39.2%

Substance: ASTSCScSaSaScSaScStStSgSaSCSCSA (antisense lA*lT*l[5mC]*dC*dA*dA*dC*dA*dC*dT*dT*dG*dA*l[5mC]*l[5mC]*lA) [SEQ ID NO: 176, β-D-oxy-LNA/DNA phosphorothioate gapmer antisense oligonucleotide targeting HER3]
- EGFR: percentage down-regulation of mRNA relative to mock transfected cells [1]: 79.4%
- HER3: percentage down-regulation of mRNA relative to mock transfected cells [3]: 61.6%
- HER2: percentage down-regulation of mRNA relative to mock transfected cells [2]: 74.8%

Substance: CSASASgSgScStScSaScSaScSaSTSCST (antisense l[5mC]*lA*lA*dG*dG*dC*dT*dC*dA*dC*dA*dC*dA*lT*l[5mC]*lT) [SEQ ID NO: 182, β-D-oxy-LNA/DNA phosphorothioate gapmer antisense oligonucleotide targeting HER3]
- HER3: percentage down-regulation of mRNA relative to mock transfected cells [3]: 74.6%

Substance: CSASAStScSaStScScSaSaScSaSCSTST (antisense l[5mC]*lA*lA*dT*dC*dA*dT*dC*dC*dA*dA*dC*dA*l[5mC]*lT*lT) [SEQ ID NO: 177, β-D-oxy-LNA/DNA phosphorothioate gapmer antisense oligonucleotide targeting HER3]
- EGFR: percentage down-regulation of mRNA relative to mock transfected cells [1]: 0%
- HER3: percentage down-regulation of mRNA relative to mock transfected cells [3]: 51.1%
- HER2: percentage down-regulation of mRNA relative to mock transfected cells [2]: 63.4%

Substance: CSASGSaScSaStScSaScStScStSGSGST (antisense l[5mC]*lA*lG*dA*dC*dA*dT*dC*dA*dC*dT*dC*dT*lG*lG*lT) [SEQ ID NO: 171, β-D-oxy-LNA/DNA phosphorothioate gapmer antisense oligonucleotide targeting HER3]
- EGFR: percentage down-regulation of mRNA relative to mock transfected cells [1]: 84.2%
- HER3: percentage down-regulation of mRNA relative to mock transfected cells [3]: 70.6%
- HER2: percentage down-regulation of mRNA relative to mock transfected cells [2]: 2.8%

Substance: CSASTSaScStScScStScSaStScSTSTSC (antisense l[5mC]*lA*lT*dA*dC*dT*dC*dC*dT*dC*dA*dT*dC*lT*lT*l[5mC]) [SEQ ID NO: 193, β-D-oxy-LNA/DNA phosphorothioate gapmer antisense oligonucleotide targeting HER3]
- HER3: percentage down-regulation of mRNA relative to mock transfected cells [3]: 64%

Substance: CSASTScScSaSaScSaScStStSgSASCSC (antisense l[5mC]*lA*lT*dC*dC*dA*dA*dC*dA*dC*dT*dT*dG*lA*l[5mC]*l[5mC]) [SEQ ID NO: 175, β-D-oxy-LNA/DNA phosphorothioate gapmer antisense oligonucleotide targeting HER3]
- EGFR: percentage down-regulation of mRNA relative to mock transfected cells [1]: 86.1%
- HER3: percentage down-regulation of mRNA relative to mock transfected cells [3]: 65.5%
- HER2: percentage down-regulation of mRNA relative to mock transfected cells [2]: 76.9%

Substance: CSASTSgStSaSgSaScSaStScSaSASTST (l[5mC]*lA*lT*dG*dT*dA*dG*dA*dC*dA*dT*dC*dA*lA*lT*lT; antisense) [SEQ ID NO: 179]
- EGFR: percentage down-regulation of mRNA relative to mock transfected cells [1]: 52.6%
- HER3: percentage down-regulation of mRNA relative to mock transfected cells [3]: 70.5%
- HER2: percentage down-regulation of mRNA relative to mock transfected cells [2]: 75.6%

Substance: CSASTStScSaSaSgStStScStStSCSAST (antisense l[5mC]*lA*lT*dT*dC*dA*dA*dG*dT*dT*dC*dT*dT*l[5mC]*lA*lT) [SEQ ID NO: 184, β-D-oxy-LNA/DNA phosphorothioate gapmer antisense oligonucleotide targeting HER3]
- HER3: percentage down-regulation of mRNA relative to mock transfected cells [3]: 81.1%

Substance: CSTSCScSaSgSaScSaStScSaScSTSCST (antisense l[5mC]*lT*l[5mC]*dC*dA*dG*dA*dC*dA*dT*dC*dA*dC*lT*l[5mC]*lT) [SEQ ID NO: 170, β-D-oxy-LNA/DNA phosphorothioate gapmer antisense oligonucleotide targeting HER3]
- EGFR: percentage down-regulation of mRNA relative to mock transfected cells [1]: 91.5%
- HER2: percentage down-regulation of mRNA relative to mock transfected cells [2]: 65.8%

Substance: GSCSCScSaSgScSaScStSaSaStSTSTSC (antisense lG*l[5mC]*l[5mC]*dC*dA*dG*dC*dA*dC*dT*dA*dA*dT*lT*lT*l[5mC]) [SEQ ID NO: 186, β-D-oxy-LNA/DNA phosphorothioate gapmer antisense oligonucleotide targeting HER3]
- HER3: percentage down-regulation of mRNA relative to mock transfected cells [3]: 79.9%

Substance: TSCSASaStScSaStScScSaSaScSASCST (antisense lT*l[5mC]*lA*dA*dT*dC*dA*dT*dC*dC*dA*dA*dC*lA*l[5mC]*lT) [SEQ ID NO: 178, β-D-oxy-LNA/DNA phosphorothioate gapmer antisense oligonucleotide targeting HER3]
- EGFR: percentage down-regulation of mRNA relative to mock transfected cells [1]: 0%
- HER3: percentage down-regulation of mRNA relative to mock transfected cells [3]: 76.7%
- HER2: percentage down-regulation of mRNA relative to mock transfected cells [2]: 88.6%

Substance: TSCSAScSaScScSaStSaSgScStSCSCSA (antisense lT*l[5mC]*lA*dC*dA*dC*dC*dA*dT*dA*dG*dC*dT*l[5mC]*l[5mC]*lA) [SEQ ID NO: 174, β-D-oxy-LNA/DNA phosphorothioate gapmer antisense oligonucleotide targeting HER3]
- EGFR: percentage down-regulation of mRNA relative to mock transfected cells [1]: 86.4%
- HER2: percentage down-regulation of mRNA relative to mock transfected cells [2]: 94.8%
